We go through one compound from US20060014231A1, “Methods and compositions to promote bone homeostasis” (priority 2004, published 2006).

Experiment [1] has as its target T1, NR1H2 (Homo sapiens, UniProt P55055).
T1 construct: amplification of the complete open reading frame from ATG start codon to the stop codon of drugable genes; expressed in transfected cells; host or cells: primary human bone-marrow MPCs, adenoviral transduction (Ad5-NR1H2 with Ad-hCAR)
T1 sequence (P55055 1-460): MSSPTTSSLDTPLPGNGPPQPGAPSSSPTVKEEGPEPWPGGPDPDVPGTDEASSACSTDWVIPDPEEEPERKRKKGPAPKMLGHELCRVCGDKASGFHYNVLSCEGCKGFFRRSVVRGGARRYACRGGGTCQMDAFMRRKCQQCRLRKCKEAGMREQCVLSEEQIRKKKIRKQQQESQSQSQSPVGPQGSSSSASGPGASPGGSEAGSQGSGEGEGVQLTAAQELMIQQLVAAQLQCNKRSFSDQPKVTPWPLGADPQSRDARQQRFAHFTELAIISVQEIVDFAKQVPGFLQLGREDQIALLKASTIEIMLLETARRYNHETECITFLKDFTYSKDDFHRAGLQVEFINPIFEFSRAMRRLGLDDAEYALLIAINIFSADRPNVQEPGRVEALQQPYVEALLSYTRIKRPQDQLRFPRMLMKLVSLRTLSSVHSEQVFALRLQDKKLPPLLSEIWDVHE
Kind of experiment: Alkaline phosphatase (AP) assay in MPCs infected with Ad-NR1H2 and treated with ligand. Format: cell-based. Particulars: MPCs infected with Ad-NR1H2, increasing ligand concentrations, MUP readout after 7, 10 and 13 days. Here is the method:
(§1) After 6 days, medium is removed and replaced with fresh medium containing the same concentrations of the compound T0901317. Readouts of AP activity are performed at several time points after the start of the experiment, typically after 7, 10 and 13 days. Up-regulation of alkaline phosphatase activity is read as follows: medium is removed from the monolayers, 15 μl MUP is added to each well, the plates are incubated for 15 min at 37° C. and then read for AP activity using a fluorescence plate reader (Fluostar, BMG).
as §1, with “MPCs are seeded on day 0 at 1000 cells per well of a 384 well plate and co-infected the next day using AdC51-hCAR (MOI 250) and different MOIs of Ad5-NR1H2 (MOI 2000, 666). On day 1, 9 concentrations (1.52E-9M, 4.57E-9M, 1.37E-8M, 4.12E-8M, 1.23E-7M, 3.7E-7M, 1.11E-6M, 3.33E-6M, 1E-5M) of the compound GW3965 with fixed vehicle concentration (DMSO at final concentration of 0.161%) are added to the wells. After” for “After”, “GW3965.” for “T0901317.”
After 6 days, medium is removed and replaced with fresh medium containing the same concentrations of the compound APD. Readouts of AP activity are performed at several time points after the start of the experiment, typically after 7, 10 and 13 days. Up-regulation of alkaline phosphatase activity is read as follows: medium is removed from the monolayers, 15 μl MUP is added to each well, the plates are incubated for 15 min at 37° C. and then read for AP activity using a fluorescence plate reader (Fluostar, BMG).

For experiment [2], the system named is calvarial skull bones (hemicalvaria). Kind of experiment: Calvarial skull assay (bone organ culture, weight and histological readout). Further details: species or system CD1 mice. The procedure: CD1 pups are harvested around birth from CD1 female mice (received from Janvier (Le Genest St Isle, France) when they were 11 days pregnant). Pups are decapitated and the calvarial skull is dissected and split into 2 hemicalvaria. Hemicalvaria are blotted using sterile gauze, weighed and cultured in 24 well plates (MEMalpha or BGJb-Fitton-Jackson medium containing 50 μg/ml L-ascorbic acid (Sigma, A-4034), 5 mM β-glycerophosphate (Sigma, G-9891) and Penicillin-Streptomycin (Invitrogen Cat # 15140-122)). Small molecules (ligands, agonists, antagonists) are tested in at least three-fold at a minimum of 3 concentrations. Each small molecule is added to the medium on day 0 and added again when refreshing the medium (every 2-3 days). Three to 16 days after the start of the experiment, skulls are weighed again after blotting them dry using sterile gauze. The weight difference is calculated, expressed as percent weight change and the mean and standard deviations (SD) are calculated for the triplicate measurements. Data are analyzed using the Student's t-test.
The formation of new osteoid is analyzed histologically as follows: hemicalvaria are fixed in 10% buffered formalin for at least 2 days, decalcified in 10% EDTA overnight, processed through graded alcohols and embedded in paraffin wax. Three to 10 μm sections are prepared of the calvaria and stained with hematoxylin and eosin (H&E). Healthy cells, dead cells, old and new bone, and collagen are identified by their distinctive morphology and colouring observed after H&E staining. The surfaces taken by these are measured stereologically (μm^2 readout) and termed Osteoblast area, Debris area, Native and New bone area, Collagen area and Total area (sum of the previous 5 areas), respectively. In addition, the thickness (μm readout) is measured at 8 positions, evenly spaced over the section.
The histological readout of the calvarial skull assay is developed using known osteogenic agents. Hemicalvaria were treated with recombinant human parathyroid hormone (rhPTH).
T0901317 is added to the culture medium of the dissected hemicalvaria at the day of dissection at several doses (19.5, 78.1 and 313 nM), in fourfold. The concentration of the solvent (vehicle), DMSO, is fixed at a final concentration of 0.05%. The medium, containing T0901317 or vehicle control is refreshed every 2-3 days. Hemicalvaria are harvested 7 days after the initiation of the experiment and subjected to the histological analysis described above.

The mark [3] stands for this setting: 19.5, 78.1 and 313 nM, 7 days, H&E histology.
[4] abbreviates: 19.5, 78.1 and 313 nM, 7 days, H&E histology, versus 0.05% DMSO.

“Also recorded” adds a separate entry of the source.

On to `O=S(=O)(c1ccccc1)N(CC(F)(F)F)c1ccc(C(O)(C(F)(F)F)C(F)(F)F)cc1` [T0901317], for which the “up-regulation of alkaline phosphatase (AP) activity” value in experiment [1] is “dose-response relation”. For the same compound, in experiment [2] (setting [3]), the thickness result was “Dose-response activity” and the “total area (sum of all areas measured)” value is listed as “Dose-response activity”. Also, in experiment [2] (setting [4]), the collagen area result is “Statistically significant increases”, the new bone area entry is listed as “Statistically significant increases” and the osteoblast area result is “Statistically significant increases; also recorded: Dose-response activity”. The “weight change of calvarial skull explants” value in experiment [2] (figure legends FIG. 17 and FIG. 18) is given as “Weight increases”.
